The numbers were not newly measured in article PMC10517971, “An inverse agonist of orphan receptor GPR61 acts by a G protein-competitive allosteric mechanism” (Nature Communications, 2023), which cites them from elsewhere.

For data set [1] the following is noted: cited from earlier work.
The subject of another data set is GPR61. Details: method as in PMID 14607265, PMID 31352450. The following applies: cited from earlier work.

Consider `CCCCCCCCCOc1ccc2[nH]cc(CCN)c2c1` [Compound 5-NOT, 5-nonyloxy-tryptamine], for which, in data set [1], the solubility result is “low solubility”. For the same compound, in the data set on GPR61, the “potency as GPR61 inverse agonist” value is given as “low potency” and the selectivity entry is “lack of selectivity”.
